# Measurements from PubChem BioAssay (NCI).
#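 Briefly, cells in 96-well plates were exposed to five compound concentrations for 48 h, and endpoints were estimated by linear interpolation. At the GI50, growth is halved. TGI marks complete inhibition of growth.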
# How the values were obtained:
# Assay in all cases: NCI tumour cell line growth inhibition, 48 h
# [1] = test system: SK-MEL-2 melanoma
# [2] = test system: HCC-2998 colon
# [3] = test system: SF-268 CNS
# [4] = test system: MALME-3M melanoma
# [5] = test system: OVCAR-8 ovarian
# [6] = test system: LOX IMVI melanoma
# [7] = test system: SK-MEL-5 melanoma
# [8] = test system: ACHN renal
# [9] = test system: HS 578T breast
# [10] = test system: OVCAR-5 ovarian
# [11] = test system: SF-295 CNS
# [12] = test system: NCI-H522 lung
# [13] = test system: CAKI-1 renal
# [14] = test system: COLO 205 colon
# [15] = test system: PC-3 prostate
# [16] = test system: TK-10 renal
# [17] = test system: 786-0 renal
# [18] = test system: M14 melanoma
# [19] = test system: RPMI-8226 leukemia
# [20] = test system: MDA-MB-231 breast
# [21] = test system: MCF7 breast
# [22] = test system: HCT-15 colon
# [23] = test system: BT-549 breast
# [24] = test system: UACC-62 melanoma
# [25] = test system: SN12C renal
# [26] = test system: NCI-H226 lung
# [27] = test system: DU-145 prostate
compound,measurement,setting,value
COc1cccc2c1n([O-])c1cccc(OC)c1[n+]2=O,TGI,[1],> 100 µM
same,GI50,[2],2.36 µM
same,TGI,[2],11.6 µM
same,GI50,[3],6.71 µM
same,TGI,[3],35.3 µM
same,GI50,[4],8.05 µM
same,TGI,[4],25.7 µM
same,GI50,[5],4.51 µM
same,TGI,[5],35.8 µM
same,GI50,[6],5.19 µM
same,TGI,[6],27.2 µM
same,GI50,[7],3.59 µM
same,TGI,[7],14.9 µM
same,GI50,[8],4.35 µM
same,TGI,[8],> 100 µM
same,GI50,[9],8.87 µM
same,TGI,[9],60.1 µM
same,GI50,[10],9.71 µM
same,TGI,[10],27.3 µM
same,GI50,[11],3.03 µM
same,TGI,[11],18.5 µM
same,GI50,[12],5.77 µM
same,TGI,[12],28.1 µM
same,GI50,[13],3.97 µM
same,TGI,[13],76.5 µM
same,GI50,[14],12.1 µM
same,TGI,[14],28.5 µM
same,GI50,[15],7.76 µM
same,TGI,[15],35.3 µM
same,GI50,[16],24.3 µM
same,TGI,[16],> 100 µM
same,GI50,[17],8.78 µM
same,TGI,[17],28.8 µM
same,GI50,[18],7.02 µM
same,TGI,[18],26.5 µM
same,GI50,[19],4.67 µM
same,TGI,[19],25 µM
same,GI50,[20],20.9 µM
same,TGI,[20],> 100 µM
same,GI50,[21],3.15 µM
same,TGI,[21],25.6 µM
same,GI50,[22],4.95 µM
same,TGI,[22],> 100 µM
same,GI50,[23],8.1 µM
same,TGI,[23],21.8 µM
same,GI50,[24],9.22 µM
same,TGI,[24],27.4 µM
same,GI50,[25],6.85 µM
same,TGI,[25],> 100 µM
same,GI50,[26],6.1 µM
same,TGI,[26],28.8 µM
same,GI50,[27],7.97 µM
same,TGI,[27],> 100 µM
